From US20250302837A1, “INHIBITORS OF CHYMASE FOR USE IN THE SELECTIVE RESOLUTION OF THROMBI IN THROMBOTIC OR THROMBOEMBOLIC DISORDERS” (SOCPRA SCIENCES SANTÉ ET HUMAINES S.E.C., priority 2022, published 2025)

Tests used:
[1] = target: plasminogen/plasmin (Homo sapiens (Human), UniProt P00747); assay: Halo assay: tPA-induced fibrinolysis of human blood halos, plasmin inhibitor control; conditions: 0.1 μM or 1 μM co-administered with tPA, pre-formed halo
[2] = test system: chymase in mouse thrombus extracts; assay: Intra-thrombus chymase enzymatic activity ex vivo, mouse thrombi; format: biochemical; conditions: thrombus from venous stenosis in mouse, +10 μM TY-51469
Experimental: (§1) Plasmin activity was determined by the hydrolysis rate of 50 μM of substrate, D-Ala-Leu-Lys-7-amido-4-methylcoumarin (Sigma Aldrich, Saint-Louis, MO, USA) at 37° C. for 1 h. Chymase activity was determined by the hydrolysis rate of 10 μM of substrate, Suc-Leu-Leu-Val-Tyr-7-amido-4-methylcoumarin (Peptide Institute Inc., Osaka, Japan) at 37° C. for 1 h. The fluorescence released was measured with an Infinite M1000 spectrophotometer (Tecan Group Ltd., Mannerdorf, Switzerland) with λex=370 nm and λem=460 nm.

[3] = target: recombinant human chymase (Homo sapiens (Human), UniProt P23946); assay: Enzymatic chymase activity assay (human)
[4] = target: Mouse chymase (rmMCP-4) (Mus musculus (Mouse), UniProt P21812); assay: Mouse plasmin degradation by chymase, cleavage products by LC-MS/MS; format: biochemical; conditions: FIG. 3B
Experimental: (§6) The reaction was stopped with an equal volume of formic acid (FA) (for a final concentration of 4% (v/v) in water) and samples were maintained on ice until protein precipitation.
Proteins from in vitro cleavage assays were first precipitated by the addition of trichloroacetic acid (TCA) to a final concentration of 10% (v/v) and incubated for 30 min at −20° C. […] Protein pellet was washed with cold 100% acetone, air dried, and re-suspended in 50 μL of a solution containing 8 M urea, 10 mM HEPES-KOH (pH 7.4). The protein reduction step was carried out by adding DTT (Thermo Fisher Scientific, Waltham, MA, USA) to a final concentration of 5 mM and boil at 95° C. for 2 min, then incubated at room temperature for 30 min. […] Urea concentration was decreased to 2 M by the addition of 150 μL of 50 mM ammonium bicarbonate (NH4HCO3). The proteins were digested by adding 1 g Pierce MS-grade trypsin (Thermo Fisher Scientific, Waltham, MA, USA) and incubated overnight at 30° C. Digestion was stopped by adding trifluoroacetic acid (TFA) to a final concentration of 0.2% (v/v). The peptides were purified with Pierce C18 100-μL tips column (Thermo Fisher Scientific, Waltham, MA, USA). Briefly, the C18 tip column was first moistened by suctioning 100 μL of 100% acetonitrile (ACN) three times, then equilibrated by suctioning 100 μL of 0.1% (v/v) TFA buffer 3 times. […]

[5] = target: Recombinant human cathepsin G (Homo sapiens (Human), UniProt P08311); assay: Selectivity: cathepsin G assay; format: biochemical
Experimental: Recombinant human cathepsin G (CathG) protein (Protein Technologies, Bayer A G) was used. […] IC50 values were calculated using an in-house software.

[6] = test system: mouse tail bleeding model; assay: Tail bleeding time in mouse; format: in vivo
Experimental: The tail was cut 3 mm starting from the extremity. The time at which the bleeding stopped was noted. After 30 min, all animals were euthanized.

[7] = target: Thrombin (Homo sapiens (Human), UniProt P00734); assay: Serine protease selectivity assay: thrombin; format: biochemical
Experimental: (§2) The potency of test compounds against several other human serine proteases, including coagulation proteases, in buffer was analyzed in biochemical assays based on the fluorimetric detection of aminomethylcoumarine (AMC) cleaved from specific synthetic peptidic substrates by the respective proteases.
(§3) Serine protease assays were comprised of the following enzymes and substrates (final assay concentrations are given).
(§4) Test compounds were diluted in dimethylsulfoxide (DMSO) to final assay concentrations of 0-50 μM. The respective human serine protease and the respective substrate were diluted in buffer solutions (pH 7.4) consisting of 50 mM Tris/HCl, 100 mM NaCl, 5 mM CaCl2, and 0.1% bovine serum albumin to the final concentrations given below. Diluted test compound or DMSO (1 μL) in assay buffer (20 μL), diluted serine protease solution (20 μL), and substrate solution (20 μL) were added to 384-well microtiter plates (Greiner Bio-One, Frickenhausen, Germany).

[8] = target: plasmin in mouse thrombus extracts (Mus musculus (Mouse), UniProt P20918); assay: Intra-thrombus plasmin enzymatic activity ex vivo, mouse thrombi; format: biochemical; conditions: thrombus from venous stenosis in mouse, +10 μM TY-51469
Experimental: as §1

[9] = target: Factor Xa (Homo sapiens (Human), UniProt P00742); assay: Serine protease selectivity assay: factor Xa; format: biochemical
Experimental: as §2, §3, §4

[10] = target: Plasma kallikrein (Homo sapiens (Human), UniProt P03952); assay: Serine protease selectivity assay: plasma kallikrein; format: biochemical
Experimental: as §2, §3, §4

[11] = target: recombinant hamster chymase; assay: Enzymatic chymase activity assay (hamster)
[12] = test system: mouse FeCl3-induced injury thrombosis model; assay: Ferric chloride-induced injury at the inferior vena cava in mouse; format: in vivo; conditions: mouse IVC FeCl3 injury; 10 mg/kg TY-51469 intraperitoneal 1 h prior to anesthesia
Experimental: A laparotomy was performed, and the guts were gently displaced without injury from the abdominal cavity and conserved in 0.9% NaCl solution (37° C.). The IVC was exposed by separation of the vessel between the renal and iliolumbar veins. […] The guts were subsequently moved back in their original location in the abdomen. Mice were sacrificed 30 min later to access the thrombotic area in the IVC. IVCs were dissected and thrombi were isolated and weighted with an analytical balance (0.1 mg accuracy, Entris II, Sartorius).

[13] = target: Tissue plasminogen activator (Homo sapiens (Human), UniProt P00750); assay: Serine protease selectivity assay: tPA; format: biochemical
Experimental: as §2, §3, §4

[14] = target: Trypsin (Homo sapiens, UniProt P07477); assay: Serine protease selectivity assay: trypsin; format: biochemical
Experimental: as §2, §3, §4

[15] = target: T1, human chymase (rCMA-1) (Homo sapiens (Human), UniProt P23946); assay: Human plasmin degradation by chymase, cleavage products by LC-MS/MS; format: biochemical; conditions: FIG. 3A
Experimental: as §6
Proteins from in vitro cleavage assays were first precipitated by the addition of trichloroacetic acid (TCA) to a final concentration of 10% (v/v) and incubated for 30 min at −20° C. […] Protein pellet was washed with cold 100% acetone, air dried, and re-suspended in 50 μL of a solution containing 8 M urea, 10 mM HEPES-KOH (pH 7.4). […] The proteins were digested by adding 1 g Pierce MS-grade trypsin (Thermo Fisher Scientific, Waltham, MA, USA) and incubated overnight at 30° C. Digestion was stopped by adding trifluoroacetic acid (TFA) to a final concentration of 0.2% (v/v). The peptides were purified with Pierce C18 100-μL tips column (Thermo Fisher Scientific, Waltham, MA, USA). Briefly, the C18 tip column was first moistened by suctioning 100 μL of 100% acetonitrile (ACN) three times, then equilibrated by suctioning 100 μL of 0.1% (v/v) TFA buffer 3 times. Each peptide sample was passed on the balanced C18 tip column by 10 succeeding up-and-downs of 100 μL of the sample. This step was performed twice in order to administer the entire sample on the column. The C18 tip column was then washed with 100 μL of 0.1% (v/v) TFA buffer 3 times. […] This step was carried out 3 times to obtain a final volume of 300 μL. […]

[16] = target: Plasmin (Homo sapiens (Human), UniProt P00747); assay: Serine protease selectivity assay: plasmin; format: biochemical
Experimental: as §2, §3, §4

[17] = target: recombinant mouse mMCP-4 (rmMCP-4) (Mus musculus (Mouse), UniProt P21812); assay: Plasmin activity in the presence of murine chymase; format: biochemical; conditions: mouse plasmin + rmMCP-4; fulacimstat 0.1-[…], TY-51469 0.1 or 1 μM
Experimental: Active murine cathepsin C was diluted to 20 μg/mL in cathepsin C buffer (50 mM MES, 50 mM NaCl, 5 mM DTT, pH 5.5). Activation was performed by adding equal volumes of recombinant chymase and cathepsin C, adding 50 μg/mL heparin and incubating 1 h at room temperature. […] Plasmin activity was determined by the hydrolysis rate of 50 μM of substrate, D-Ala-Leu-Lys-7-amido-4-methylcoumarin (Sigma Aldrich, Saint-Louis, MO, USA) at 37° C. for 1 h, combined in a white 96-well microtitre plate.

[18] = test system: mouse venous stenosis (DVT) model; assay: Venous stenosis model in mouse (IVC), thrombus measurement; format: in vivo
Experimental: By doing this, we ensure that the endothelium is not denuded and that a residual flow of 10% in the IVC still remains. The guts were subsequently moved back in their original location in the abdomen and the abdominal cavity was closed in layers with a braided 5.0 absorbable suture. […] The IVCs were dissected post-euthanasia, and thrombi isolated, measured, weighed, and finally stored at −80° C.
(§5) The stenosis was evaluated 24- or 48-hours post-ligation. The IVCs were dissected, and thrombi were isolated, measured, and weighted.
as §5

[19] = target: Factor XIa (Homo sapiens (Human), UniProt P03951); assay: Serine protease selectivity assay: factor XIa; format: biochemical
Experimental: as §2, §3, §4

[20] = target: T1, human chymase (rCMA-1); assay: Plasmin activity in the presence of human chymase; format: biochemical; conditions: human plasmin + rCMA-1; fulacimstat 0.1-[…], TY-51469 0.1 or 1 μM
Experimental: Active murine cathepsin C was diluted to 20 μg/mL in cathepsin C buffer (50 mM MES, 50 mM NaCl, 5 mM DTT, pH 5.5). Activation was performed by adding equal volumes of recombinant chymase and cathepsin C, adding 50 μg/mL heparin and incubating 1 h at room temperature.

[21] = test system: mouse venous stenosis model; assay: Blood flow (Doppler ultrasound) in venous stenosis model in mice; format: in vivo
From the text: The main goal in thrombosis is to ensure sufficient blood flow for an appropriate maintenance of the tissue surrounding the vessel. […] Mice were anesthetized during the procedure (2% isoflurane; 4% oxygen) and their abdomens were shaved and covered with ultrasound gel.

[22] = oral intake; cited from earlier work
[23] = cited from earlier work
[24] = TY-51469 0.1 mg/kg i.p. 1 h after initiation of stenosis, observation 24 h
[25] = TY-51469 1 mg/kg i.p. 1 h after initiation of stenosis, observation 24 h
[26] = TY-51469 10 mg/kg i.p. 1 h after initiation of stenosis, observation 24 h
[27] = TY-51469 10 mg/kg i.p. 24 h after initiation of stenosis, observation 48 h
[28] = 10 mg/kg TY-51469 i.p. 1 h after start of stenosis, 6 h post-ligation
[29] = 10 mg/kg TY-51469 i.p. 1 h after start of stenosis, 24 h post-ligation
[30] = TY-51469 group, non-ligated (pre-ligation baseline)

Q: With Cl.O=c1cc(C2CCNCC2)n2nc3cccc(Cl)c3c2[nH]1 [Example 3 in WO2015067549] as the compound, how does the “tPA-induced fibrinolysis of human blood halos” value [1] read?
A: very significantly reduced

Q: For Cc1c(S(=O)(=O)Nc2ccc(-c3nc(C(=O)O)cs3)cc2S(C)(=O)=O)sc2ccc(F)cc12 [TY-51469, 2-(4-((5-fluoro-3-methylbenzo-[b]thiophene)-2-sulfonamido)-3-(methylsulfonyl)phenyl)thiazole-4-carboxylic acid], which Chymase activity [2] is on record?
A: 0.33 ± 0.25 nM AMC

Q: What about the IC50 [3] of the same compound?
A: 20 nM

Q: What about the “degradation of plasmin by chymase” value [4] of the same compound?
A: prevented

Q: And the IC50 ([5]; Cathepsin G)?
A: 1300 nM

Q: And the “less potency on cathepsin G than chymase” value ([5]; cathepsin G vs chymase)?
A: 60 fold

Q: What about the “impact on bleeding time (in words)” value ([6]; mouse tail bleeding model) of the same compound?
A: no impact on the bleeding time

Q: What about the Bleeding time prolongation ([6]; mouse tail bleeding, TY-51469 10 mg/kg) of the same compound?
A: 1.0 xfold of Ctr

Q: And the Bleeding time ([6]; mouse tail bleeding, TY-51469 10 mg/kg IP 1 h prior)?
A: 4.08 min

Q: What about the IC50 [7] of the same compound?
A: > 2000 nM

Q: And the Plasmin activity [8]?
A: 13.16 ± 1.26 nM AMC

Q: What about the IC50 [9] of the same compound?
A: > 2000 nM

Q: And the IC50 [10]?
A: > 2000 nM

Q: What about the IC50 [11] of the same compound?
A: 66 nM

Q: What about the Thrombus weight [12] of the same compound?
A: 1.31 mg

Q: And the IC50 [13]?
A: > 2000 nM

Q: And the IC50 [14]?
A: > 2000 nM

Q: What about the “degradation of plasmin by chymase” value [15] of the same compound?
A: prevented

Q: And the IC50 [16]?
A: > 2000 nM

Q: And the “plasmin activity (fluorescence generation) in presence of chymase” value (“plasmin activity … of chymase” for short) [17]?
A: increased again concentration-dependently

Q: And the Thrombus length [18, 24]?
A: 3.79 mm

Q: And the Thrombus weight [18, 24]?
A: 8.19 mg

Q: And the Thrombus length [18, 25]?
A: 1.79 mm

Q: And the Thrombus weight [18, 25]?
A: 4.04 mg

Q: What about the Thrombus length [18, 26] of the same compound?
A: 0.22 mm

Q: And the Thrombus weight [18, 26]?
A: 0.47 mg

Q: And the Thrombus length [18, 27]?
A: 1.0 mm

Q: What about the Thrombus weight [18, 27] of the same compound?
A: 1.29 mg

Q: And the IC50 [19]?
A: > 2000 nM

Q: What about the “plasmin activity … of chymase” value [20] of the same compound?
A: increased again concentration-dependently

Q: What about the Abdominal aorta velocity [21, 28] of the same compound?
A: 487.6 ± 33.1 mm/s

Q: And the “Inferior vena cava velocity” value [21, 28]?
A: 171.6 ± 27.1 mm/s

Q: What about the Abdominal aorta velocity [21, 29] of the same compound?
A: 505.8 ± 40.4 mm/s

Q: What about the “Inferior vena cava velocity” value [21, 29] of the same compound?
A: 158.5 ± 18.3 mm/s

Q: What about the Abdominal aorta velocity [21, 30] of the same compound?
A: 508.2 ± 29.7 mm/s

Q: What about the “Inferior vena cava velocity” value [21, 30] of the same compound?
A: 124.6 ± 28.7 mm/s

Q: For Cn1c(=O)oc2cc(-n3cc(C(=O)O)c(=O)n([C@@H]4CCc5c4cccc5C(F)(F)F)c3=O)ccc21 [fulacimstat, 1-(3-methyl-2-oxo-2,3-dihydro-1,3-benzoxazol-6-yl)-2,4-dioxo-3-[(1R)-4-(trifluoromethyl)-2,3-dihydro-1H-inden-1-yl]-1,2,3,4-tetrahydropyrimidine-5-carboxylic acid], which “degradation of plasmin by chymase” value [4] is on record?
A: prevented

Q: And the “plasmin activity … of chymase” value [17]?
A: increased again concentration-dependently

Q: What about the oral bioavailability [22] of the same compound?
A: bioavailable after oral intake

Q: With “tPA: Recombinant tissue-type plasminogen activator (rtPA, alteplase), the most widely used fibrinolytic drug” as the compound, how does the “dominant half-life in human plasma” value [23] read?
A: < 5 min
